In patent publication US9943519B2, “Pharmaceutical compounds” (F.HOFFMANN-LA ROCHE AG, priority 2006, dated 2018):

Legend:
Type in all cases: biochemical
Settings in all cases: ratio of IC50 values, SPA, purified human PI3K isoforms
[1] = target: human PI3K isoform gamma (p110 gamma) (Homo sapiens, UniProt P48736); experiment: p110 isoform selectivity scintillation proximity assay (gamma)
Method: (§1) Binding of compounds of the invention from above Tables 1a and 1b to purified preparations of p110 isoforms alpha, beta, delta, and gamma was measured by a Scintillation Proximity Assay (SPA) to determine binding activity (IC50 μMol) and selectivity of binding of beta, delta, and gamma isoforms relative to alpha (Example 8). These values are expressed in Table 2.
(§2) The ability of representative compounds from Tables 1a and 1b to inhibit the lipid kinase activity of purified preparations of human PI3K isoforms alpha, beta, delta, and gamma was determined by a radiometric scintillation proximity assay (SPA, GE Healthcare, Amersham Biosciences). Concentration dependent inhibition at 50% (IC50 μMol) was determined for all four isoforms […] and fold potency over beta, delta, and gamma relative to alpha was calculated for a selection of compounds in Table 2. Each compound has a p110 alpha IC50<1 μMol.

[2] = target: human PI3K isoform delta (p110 delta) (Homo sapiens, UniProt O00329); experiment: p110 isoform selectivity scintillation proximity assay (delta)
human PI3K isoform delta (p110 delta), sequence (O00329 whole entry, canonical isoform): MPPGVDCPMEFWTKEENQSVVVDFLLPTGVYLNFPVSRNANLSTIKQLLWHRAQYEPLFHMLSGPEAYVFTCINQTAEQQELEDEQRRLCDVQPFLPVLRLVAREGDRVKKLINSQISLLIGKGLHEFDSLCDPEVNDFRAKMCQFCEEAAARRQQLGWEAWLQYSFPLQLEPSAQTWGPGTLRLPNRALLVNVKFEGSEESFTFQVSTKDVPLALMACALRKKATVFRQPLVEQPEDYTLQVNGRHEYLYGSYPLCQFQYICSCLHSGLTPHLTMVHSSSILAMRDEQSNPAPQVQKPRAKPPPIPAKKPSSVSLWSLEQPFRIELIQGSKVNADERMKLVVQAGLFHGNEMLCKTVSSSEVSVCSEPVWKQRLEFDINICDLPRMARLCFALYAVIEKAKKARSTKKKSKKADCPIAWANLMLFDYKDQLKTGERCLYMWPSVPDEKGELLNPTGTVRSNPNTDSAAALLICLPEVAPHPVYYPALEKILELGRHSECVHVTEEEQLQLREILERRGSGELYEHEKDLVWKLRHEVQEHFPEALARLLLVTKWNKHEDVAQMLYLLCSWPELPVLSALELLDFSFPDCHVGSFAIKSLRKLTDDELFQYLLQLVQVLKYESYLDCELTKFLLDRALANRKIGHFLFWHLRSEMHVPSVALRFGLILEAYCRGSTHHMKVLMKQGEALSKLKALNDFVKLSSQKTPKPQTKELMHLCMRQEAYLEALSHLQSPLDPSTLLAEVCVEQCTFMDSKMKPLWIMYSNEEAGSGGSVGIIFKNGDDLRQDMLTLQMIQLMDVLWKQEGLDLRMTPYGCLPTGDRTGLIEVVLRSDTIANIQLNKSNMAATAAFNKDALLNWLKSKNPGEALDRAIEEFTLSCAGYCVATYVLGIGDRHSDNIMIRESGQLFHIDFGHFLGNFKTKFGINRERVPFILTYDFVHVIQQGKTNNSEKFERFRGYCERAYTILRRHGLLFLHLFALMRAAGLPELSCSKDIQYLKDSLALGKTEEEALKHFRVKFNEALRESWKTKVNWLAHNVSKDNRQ
human PI3K isoform delta (p110 delta), sequence (P27986 whole entry partner, canonical isoform): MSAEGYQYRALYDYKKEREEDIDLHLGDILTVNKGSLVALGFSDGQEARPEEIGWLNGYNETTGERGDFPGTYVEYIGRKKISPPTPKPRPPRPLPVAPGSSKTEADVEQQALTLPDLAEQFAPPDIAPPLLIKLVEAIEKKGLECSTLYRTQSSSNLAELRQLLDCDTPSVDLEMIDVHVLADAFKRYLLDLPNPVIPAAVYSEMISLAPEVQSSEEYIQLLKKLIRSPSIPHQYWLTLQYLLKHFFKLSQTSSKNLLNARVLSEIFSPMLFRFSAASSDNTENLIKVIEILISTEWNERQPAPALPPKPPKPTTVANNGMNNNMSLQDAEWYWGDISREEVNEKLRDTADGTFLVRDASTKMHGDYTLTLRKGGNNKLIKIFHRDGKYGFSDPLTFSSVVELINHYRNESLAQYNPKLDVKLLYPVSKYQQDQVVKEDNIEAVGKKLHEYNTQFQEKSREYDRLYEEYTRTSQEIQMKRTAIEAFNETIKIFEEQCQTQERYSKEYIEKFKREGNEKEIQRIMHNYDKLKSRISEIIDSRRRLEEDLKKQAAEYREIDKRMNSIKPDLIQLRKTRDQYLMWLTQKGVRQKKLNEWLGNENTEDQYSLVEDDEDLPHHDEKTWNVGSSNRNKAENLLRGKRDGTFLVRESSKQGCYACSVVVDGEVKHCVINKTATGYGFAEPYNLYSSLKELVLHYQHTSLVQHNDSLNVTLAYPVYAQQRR
Method: as §1, §2

[3] = target: human PI3K isoform beta (p110 beta) (Homo sapiens, UniProt P42338); experiment: p110 isoform selectivity scintillation proximity assay (beta)
human PI3K isoform beta (p110 beta), sequence (P42338 whole entry, canonical isoform): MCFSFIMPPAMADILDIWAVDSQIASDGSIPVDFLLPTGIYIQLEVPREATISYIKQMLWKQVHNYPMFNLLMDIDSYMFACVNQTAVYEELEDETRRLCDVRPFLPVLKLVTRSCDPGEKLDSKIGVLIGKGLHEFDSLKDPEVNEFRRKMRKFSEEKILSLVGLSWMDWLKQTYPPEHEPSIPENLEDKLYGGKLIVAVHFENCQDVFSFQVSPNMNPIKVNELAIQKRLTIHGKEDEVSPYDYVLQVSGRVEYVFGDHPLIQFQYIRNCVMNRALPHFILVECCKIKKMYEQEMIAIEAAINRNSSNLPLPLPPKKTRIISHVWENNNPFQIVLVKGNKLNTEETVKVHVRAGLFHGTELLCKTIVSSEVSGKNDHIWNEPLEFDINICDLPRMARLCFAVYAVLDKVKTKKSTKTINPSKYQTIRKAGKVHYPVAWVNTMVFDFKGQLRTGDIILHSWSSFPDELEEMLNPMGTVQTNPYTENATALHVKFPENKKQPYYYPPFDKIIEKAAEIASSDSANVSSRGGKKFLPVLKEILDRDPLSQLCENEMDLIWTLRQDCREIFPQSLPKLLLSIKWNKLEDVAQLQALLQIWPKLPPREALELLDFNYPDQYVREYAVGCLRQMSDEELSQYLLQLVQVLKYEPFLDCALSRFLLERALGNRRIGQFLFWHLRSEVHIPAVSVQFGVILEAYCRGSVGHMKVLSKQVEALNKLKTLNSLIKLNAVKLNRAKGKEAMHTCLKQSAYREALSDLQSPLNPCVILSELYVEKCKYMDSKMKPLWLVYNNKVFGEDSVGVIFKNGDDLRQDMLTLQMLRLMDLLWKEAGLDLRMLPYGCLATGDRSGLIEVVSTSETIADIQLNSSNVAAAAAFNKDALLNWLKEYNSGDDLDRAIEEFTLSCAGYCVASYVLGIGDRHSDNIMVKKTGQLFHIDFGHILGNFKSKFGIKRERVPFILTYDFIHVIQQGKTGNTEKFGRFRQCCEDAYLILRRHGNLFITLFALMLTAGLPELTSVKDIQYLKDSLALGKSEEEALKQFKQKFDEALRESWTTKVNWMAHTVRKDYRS
human PI3K isoform beta (p110 beta), sequence (P27986 whole entry partner, canonical isoform): as the sequence (P27986 whole entry partner, canonical isoform) above
Method: as §1, §2

human PI3K isoform gamma (p110 gamma), sequence (P48736 whole entry, canonical isoform): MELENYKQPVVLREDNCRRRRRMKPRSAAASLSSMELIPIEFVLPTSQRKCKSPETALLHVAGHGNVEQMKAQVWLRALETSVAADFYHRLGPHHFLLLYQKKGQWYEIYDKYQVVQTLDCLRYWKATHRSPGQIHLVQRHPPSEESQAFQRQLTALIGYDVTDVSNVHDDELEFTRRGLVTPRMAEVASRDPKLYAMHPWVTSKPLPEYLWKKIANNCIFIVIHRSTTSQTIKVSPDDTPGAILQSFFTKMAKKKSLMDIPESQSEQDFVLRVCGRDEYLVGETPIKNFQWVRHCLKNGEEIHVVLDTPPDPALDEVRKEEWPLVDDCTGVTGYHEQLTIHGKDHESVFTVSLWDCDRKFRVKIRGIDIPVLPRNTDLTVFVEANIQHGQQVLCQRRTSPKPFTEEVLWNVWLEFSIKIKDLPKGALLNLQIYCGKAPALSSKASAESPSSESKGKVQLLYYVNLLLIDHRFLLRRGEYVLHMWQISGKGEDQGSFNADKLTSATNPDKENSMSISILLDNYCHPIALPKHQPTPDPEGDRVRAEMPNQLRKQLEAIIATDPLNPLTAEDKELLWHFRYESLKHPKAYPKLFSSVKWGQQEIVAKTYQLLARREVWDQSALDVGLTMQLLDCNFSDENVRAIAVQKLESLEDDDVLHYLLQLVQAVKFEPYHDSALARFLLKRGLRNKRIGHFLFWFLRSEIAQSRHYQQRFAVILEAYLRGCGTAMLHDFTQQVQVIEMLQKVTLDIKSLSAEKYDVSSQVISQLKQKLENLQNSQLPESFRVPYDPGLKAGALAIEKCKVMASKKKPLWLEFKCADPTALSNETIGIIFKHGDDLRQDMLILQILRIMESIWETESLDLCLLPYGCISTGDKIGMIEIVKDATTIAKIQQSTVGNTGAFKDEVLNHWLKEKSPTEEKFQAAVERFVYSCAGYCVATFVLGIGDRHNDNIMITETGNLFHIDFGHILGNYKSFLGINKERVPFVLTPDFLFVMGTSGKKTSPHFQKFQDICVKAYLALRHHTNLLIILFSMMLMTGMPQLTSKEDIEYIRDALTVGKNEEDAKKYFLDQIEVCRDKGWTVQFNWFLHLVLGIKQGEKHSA

Row | SMILES | alpha/gamma (fold potency over gamma relative to alpha) [1] | alpha/delta (fold potency over delta relative to alpha) [2] | alpha/beta (fold potency over beta relative to alpha) [3]
1 | Cc1c(CN2CCC(S(C)(=O)=O)CC2)sc2c(N3CCOCC3)nc(-c3cccc4[nH]ncc34)nc12 [Compound 23, 2-(1H-indazol-4-yl)-7-methyl-6-((4-(methylsulfonyl)piperidin-1-yl)methyl)-4-morpholinothieno[3,2-d]pyrimidine] | >10 fold | <10 fold | >10 fold
2 | CN1CCN(S(=O)(=O)C2CCN(Cc3cc4nc(-c5cccc6[nH]ncc56)nc(N5CCOCC5)c4s3)CC2)CC1 [Compound 24, 2-(1H-indazol-4-yl)-6-((4-N-4-methylpiperazinosulfonylpiperidin-1-yl)methyl)-4-morpholinothieno[3,2-d]pyrimidine] | >10 fold | <10 fold | >10 fold
3 | CN(C)S(=O)(=O)C1CCN(Cc2cc3nc(-c4cccc5[nH]ncc45)nc(N4CCOCC4)c3s2)CC1 [Compound 27, 2-(1H-indazol-4-yl)-6-((4-N,N-dimethylaminosulfonylpiperidin-1-yl)methyl)-4-morpholinothieno[3,2-d]pyrimidine] | >10 fold | <10 fold | >10 fold
4 | Cc1c(CN2CCN(S(C)(=O)=O)CC2)sc2c(N3CCOCC3)nc(-c3cccc4[nH]ncc34)nc12 [Compound 29, 2-(1H-indazol-4-yl)-7-methyl-6-((4-(methylsulfonyl)piperazin-1-yl)methyl)-4-morpholinothieno[3,2-d]pyrimidine] | >10 fold | <10 fold | >10 fold
5 | COCCN(Cc1cc2nc(-c3cccc4[nH]ncc34)nc(N3CCOCC3)c2s1)C1CCN(S(C)(=O)=O)CC1 [Compound 34, N-((2-(1H-indazol-4-yl)-4-morpholinothieno[3,2-d]pyrimidin-6-yl)methyl)-N-(2-methoxyethyl)-1-methylsulfonylpiperidin-4-amine] | >10 fold | <10 fold | >10 fold
6 | CN(Cc1cc2nc(-c3cccc4[nH]ncc34)nc(N3CCOCC3)c2s1)CC1CCCN1S(C)(=O)=O (stereo not drawn) [Compound 59, N-((2-(1H-indazol-4-yl)-4-morpholinothieno[3,2-d]pyrimidin-6-yl)methyl)-N-methyl(1-methylsulfonylpyrrolidin-2-yl)methanamine] | >10 fold | <10 fold | >10 fold
7 | c1cc(-c2nc(N3CCOCC3)c3sc(CN4CCC(Cn5cccn5)CC4)cc3n2)c2cn[nH]c2c1 [Compound 62, 6-((4-((1H-pyrazol-1-yl)methyl)piperidin-1-yl)methyl)-2-(1H-indazol-4-yl)-4-morpholinothieno[3,2-d]pyrimidine] | >10 fold | <10 fold | >10 fold
8 | C[C@H](O)C(=O)N1CCN(Cc2cc3nc(-c4cccc5[nH]ncc45)nc(N4CCOCC4)c3s2)CC1 [Compound 66, (S)-1-(4-((2-(1H-indazol-4-yl)-4-morpholinothieno[3,2-d]pyrimidin-6-yl)methyl)piperazin-1-yl)-2-hydroxypropan-1-one] | >10 fold | <10 fold | <10 fold
9 | CS(=O)(=O)N1CCN(Cc2cc3nc(-c4cnc5ccccc5c4)nc(N4CCOCC4)c3s2)CC1 [Compound 89, 3-[6-(4-Methanesulfonyl-piperazin-1-ylmethyl)-4-morpholin-yl-thieno[3,2-d]pyrimidin-2-yl]-quinoline] | >10 fold | >10 fold | >10 fold
10 | CS(=O)(=O)N1CCN(Cc2cc3nc(-c4cncc5ccccc45)nc(N4CCOCC4)c3s2)CC1 [Compound 90, 4-[6-(4-Methanesulfonyl-piperazin-1-ylmethyl)-4-morpholin-4-yl-thieno[3,2-d]pyrimidin-2-yl]-isoquinoline] | >10 fold | <10 fold | >10 fold

Further lines, results first:

Row | alpha/gamma (fold potency over gamma relative to alpha) [1] | alpha/delta (fold potency over delta relative to alpha) [2] | alpha/beta (fold potency over beta relative to alpha) [3] | SMILES
11 | >10 fold | <10 fold | >10 fold | CS(=O)(=O)N1CCN(Cc2cc3nc(-c4cccc5[nH]ncc45)nc(N4CCOCC4)c3o2)CC1 [Compound 2, 2-(1H-indazol-4-yl)-6-((4-methylsulfonylpiperazin-1-yl)methyl)-4-morpholinofuro[3,2-d]pyrimidine]
12 | >10 fold | <10 fold | >10 fold | C[C@H]1CN(Cc2cc3nc(-c4cccc5[nH]ncc45)nc(N4CCOCC4)c3s2)CCN1S(C)(=O)=O [Compound 4, 2-(1H-indazol-4-yl)-6-(((3S,5R)-3-methyl-4-methylsulfonylpiperazin-1-yl)methyl)-4-morpholinothieno[3,2-d]pyrimidine]
13 | >10 fold | <10 fold | >10 fold | C[C@@H]1CN(S(C)(=O)=O)C[C@H](C)N1Cc1cc2nc(-c3cccc4[nH]ncc34)nc(N3CCOCC3)c2s1 [Compound 7, 6-(((2R,6S)-4-methylsulfonyl-2,6-dimethylpiperazin-1-yl)methyl)-2-(1H-indazol-4-yl)-4-morpholinothieno[3,2-d]pyrimidine]
14 | >10 fold | <10 fold | >10 fold | Cc1nc2ccccc2n1-c1nc(N2CCOCC2)c2cc(CN3CCN(S(C)(=O)=O)CC3)sc2n1 [Compound 16, 2-(2-methyl-1H-benzo[d]imidazol-1-yl)-6-((4-methylsulfonylpiperazin-1-yl)methyl)-4-morpholinothieno[2,3-d]pyrimidine]
15 | >10 fold | <10 fold | >10 fold | O=S(=O)(N1CCOCC1)N1CCN(Cc2cc3nc(-c4cccc5[nH]ncc45)nc(N4CCOCC4)c3s2)CC1 [Compound 28, 2-(1H-indazol-4-yl)-6-((4-N-morpholinosulfonylpiperazin-1-yl)methyl)-4-morpholinothieno[3,2-d]pyrimidine]
16 | >10 fold | <10 fold | <10 fold | CC(=O)N1CCN(Cc2cc3nc(-c4cccc5[nH]ncc45)nc(N4CCOCC4)c3s2)CC1 [Compound 54, 1-(4-((2-(1H-indazol-4-yl)-4-morpholinothieno[3,2-d]pyrimidin-6-yl)methyl)piperazin-1-yl)ethanone]
17 | >10 fold | <10 fold | >10 fold | CS(=O)(=O)N1CCN(Cc2cc3c(N4CCOCC4)nc(-c4cccc5[nH]ncc45)nc3s2)CC1 [Compound 57, 2-(1H-indazol-4-yl)-6-((4-methylsulfonylpiperazin-1-yl)methyl)-4-morpholinothieno[2,3-d]pyrimidine]
18 | >10 fold | <10 fold | >10 fold | CN(C1CCN(Cc2cc3nc(-c4cccc5[nH]ncc45)nc(N4CCOCC4)c3s2)C1)S(C)(=O)=O (stereo not drawn) [Compound 58, 1-((2-(1H-indazol-4-yl)-4-morpholinothieno[3,2-d]pyrimidin-6-yl)methyl)-N-methyl-N-methylsulfonylpyrrolidin-3-amine]
19 | >10 fold | <10 fold | >10 fold | CN(Cc1cc2nc(-c3cccc4[nH]ncc34)nc(N3CCOCC3)c2s1)C1CCN(S(C)(=O)=O)C1 (stereo not drawn) [Compound 60, N-((2-(1H-indazol-4-yl)-4-morpholinothieno[3,2-d]pyrimidin-6-yl)methyl)-N-methyl-(1-methylsulfonylpyrrolidin)-3-amine]
20 | >10 fold | <10 fold | <10 fold | OC1CCCN(Cc2cc3nc(-c4cccc5[nH]ncc45)nc(N4CCOCC4)c3s2)C1 (stereo not drawn) [Compound 65, 1-((2-(1H-indazol-4-yl)-4-morpholinothieno[3,2-d]pyrimidin-6-yl)methyl)piperidin-3-ol]
21 | >10 fold | <10 fold | >10 fold | CS(=O)(=O)N1CCN(Cc2cc3c(N4CCOCC4)nc(-c4cncc5ccccc45)nc3s2)CC1 [Compound 94, 4-[6-(4-Methanesulfonyl-piperazin-1-ylmethyl)-4-morpholin-4-yl-thieno[2,3-d]pyrimidin-2-yl]-isoquinoline]
